According to patent publication US11492385B2, “Long-acting co-agonists of the glucagon and GLP-1 receptors” (Merck Sharp & Dohme Corp., priority 2015, dated 2022):
Starred links: 1 amine or outer side, 2 acyl side, 3 side chain; linkers in the order of their positions; H or OH if unused. Non-standard residues stand in square brackets, D forms with d. Residues, ends and D or L forms follow the SMILES beside them. Groups on a side chain read outwards from the residue. *: point of attachment. C20 diacid = O=C(O)CCCCCCCCCCCCCCCCCCC(=O)*; C19 diacid = O=C(O)CCCCCCCCCCCCCCCCCC(=O)*; C16 diacid = O=C(O)CCCCCCCCCCCCCCC(=O)*; γGlu = O=C(O)[C@H](CCC(=O)[*:2])N[*:1]; Met(O2) = CS(=O)(=O)CC[C@H](N)C(=O)O; αMeF = C[C@](N)(Cc1ccccc1)C(=O)O; αMeD = C[C@](N)(CC(=O)O)C(=O)O; αMeL = CC(C)C[C@](C)(N)C(=O)O; AEEA = NCCOCCOCC(=O)O; Aib = CC(C)(N)C(=O)O

Key:
human GCGR = biological target: T1, human GCGR (Homo sapiens, UniProt P47871); assay: cAMP activity assay, cells expressing human GCGR; type: cell-based; details: for EC50: cAMP production, cells expressing human GCGR, assay buffer with or without 20% human serum (not stated which), read-out: GCGR EC50 human; for hGCGR/hGLP1R (hTone): ratio of human GCGR EC50 to human GLP1R EC50
T1 construct: expressed in transfected cells; kept under Blasticidin and Hygromycin selection
Method in brief: (§1)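 cAMP production in human GLP1R- or GCGR-expressing cells was read by luminescence after overnight dark incubation at room temperature. Peptides were given as 10-point DMSO dilution series, with native GLP-1 and glucagon as references. Four-parameter logistic fitting gave EC50.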

human GLP1R = biological target: T2, human GLP1R (Homo sapiens, UniProt P43220); assay: cAMP activity assay, cells expressing human GLP1R; type: cell-based; details: cAMP production, assay buffer with or without 20% human serum (not stated which)
T2 construct: expressed in transfected cells; kept under Blasticidin and Hygromycin selection
Method in brief: as §1

T1 sequence (P47871 26-477): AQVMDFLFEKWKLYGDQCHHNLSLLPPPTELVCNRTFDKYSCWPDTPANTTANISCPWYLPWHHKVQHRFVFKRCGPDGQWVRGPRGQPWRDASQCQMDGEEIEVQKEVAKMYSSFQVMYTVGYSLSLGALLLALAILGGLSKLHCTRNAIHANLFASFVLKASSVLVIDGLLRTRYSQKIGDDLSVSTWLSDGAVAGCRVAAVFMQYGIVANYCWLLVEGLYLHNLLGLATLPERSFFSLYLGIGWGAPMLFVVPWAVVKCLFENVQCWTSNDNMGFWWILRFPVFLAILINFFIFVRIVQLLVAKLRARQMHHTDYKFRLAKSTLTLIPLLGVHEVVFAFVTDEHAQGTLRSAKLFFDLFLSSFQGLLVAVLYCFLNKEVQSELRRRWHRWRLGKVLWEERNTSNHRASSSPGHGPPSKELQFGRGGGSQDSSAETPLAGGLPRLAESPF
T2 sequence (P43220 24-463): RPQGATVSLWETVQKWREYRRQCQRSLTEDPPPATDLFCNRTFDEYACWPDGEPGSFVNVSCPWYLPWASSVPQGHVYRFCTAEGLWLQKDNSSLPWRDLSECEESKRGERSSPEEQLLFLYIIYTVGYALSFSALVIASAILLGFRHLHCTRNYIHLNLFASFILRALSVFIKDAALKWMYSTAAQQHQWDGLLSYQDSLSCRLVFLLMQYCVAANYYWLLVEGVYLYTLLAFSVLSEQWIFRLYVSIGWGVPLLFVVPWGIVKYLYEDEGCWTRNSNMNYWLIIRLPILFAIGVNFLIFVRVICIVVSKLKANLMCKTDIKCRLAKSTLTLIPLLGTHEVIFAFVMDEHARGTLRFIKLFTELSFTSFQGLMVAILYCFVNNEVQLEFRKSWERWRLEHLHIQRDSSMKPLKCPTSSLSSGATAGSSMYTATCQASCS

EC50 (human GCGR) [nM] | hGCGR/hGLP1R (hTone) (human GCGR) | EC50 (human GLP1R) [nM] | Compound
0.46 | 4.54 | 0.1 | CC(C)C[C@H](NC(=O)[C@H](Cc1c[nH]c2ccccc12)NC(=O)[C@H](CCC(N)=O)NC(=O)[C@@H](NC(=O)[C@H](Cc1ccccc1)NC(=O)[C@H](CC(=O)O)NC(=O)[C@H](CCCCNC(=O)COCCOCCNC(=O)COCCOCCNC(=O)CC[C@H](NC(=O)CCCCCCCCCCCCCCC(=O)O)C(=O)O)NC(=O)[C@H](C)NC(=O)[C@H](C)NC(=O)[C@H](CCCNC(=N)N)NC(=O)[C@H](C)NC(=O)[C@H](CC(=O)O)NC(=O)[C@](C)(CC(C)C)NC(=O)[C@H](Cc1ccc(O)cc1)NC(=O)[C@H](CCCCN)NC(=O)[C@H](CO)NC(=O)[C@H](Cc1ccc(O)cc1)NC(=O)[C@H](CC(=O)O)NC(=O)[C@H](CO)NC(=O)[C@@H](NC(=O)[C@H](Cc1ccccc1)NC(=O)[C@@H](NC(=O)CNC(=O)[C@H](CCC(N)=O)NC(=O)C(C)(C)NC(=O)[C@@H](N)Cc1c[nH]cn1)[C@@H](C)O)[C@@H](C)O)C(C)C)C(=O)N[C@@H](CCS(C)(=O)=O)C(=O)N[C@@H](CC(=O)O)C(=O)N[C@H](C(N)=O)[C@@H](C)O [compound 38] (H-H[Aib]QGTFTSDYSKY[αMeL]DARAAK([AEEA-AEEA-γGlu-C16 diacid])DFVQWL[Met(O2)]DT-NH2)
0.33 | 2.93 | 0.11 | CC(C)C[C@H](NC(=O)[C@H](Cc1ccc(O)cc1)NC(=O)[C@H](CCCCN)NC(=O)[C@H](CO)NC(=O)[C@H](Cc1ccc(O)cc1)NC(=O)[C@H](CC(=O)O)NC(=O)[C@H](CO)NC(=O)[C@@H](NC(=O)[C@H](Cc1ccccc1)NC(=O)[C@@H](NC(=O)CNC(=O)[C@H](CCC(N)=O)NC(=O)C(C)(C)NC(=O)[C@@H](N)Cc1c[nH]cn1)[C@@H](C)O)[C@@H](C)O)C(=O)N[C@@H](CC(=O)O)C(=O)N[C@@H](C)C(=O)N[C@@H](CCCNC(=N)N)C(=O)N[C@@H](C)C(=O)N[C@@H](C)C(=O)N[C@@H](CCCCNC(=O)COCCOCCNC(=O)COCCOCCNC(=O)CC[C@H](NC(=O)CCCCCCCCCCCCCCC(=O)O)C(=O)O)C(=O)N[C@@H](CC(=O)O)C(=O)N[C@@](C)(Cc1ccccc1)C(=O)N[C@H](C(=O)N[C@@H](CCC(N)=O)C(=O)N[C@@H](Cc1c[nH]c2ccccc12)C(=O)N[C@@H](CC(C)C)C(=O)N[C@@H](CCS(C)(=O)=O)C(=O)N[C@@H](CC(=O)O)C(=O)N[C@H](C(N)=O)[C@@H](C)O)C(C)C [compound 39] (H-H[Aib]QGTFTSDYSKYLDARAAK([AEEA-AEEA-γGlu-C16 diacid])D[αMeF]VQWL[Met(O2)]DT-NH2)
0.65 | 10.39 | 0.06 | CC(C)C[C@H](NC(=O)[C@H](Cc1ccc(O)cc1)NC(=O)[C@H](CCCCN)NC(=O)[C@H](CO)NC(=O)[C@H](Cc1ccc(O)cc1)NC(=O)[C@H](CC(=O)O)NC(=O)[C@H](CO)NC(=O)[C@@H](NC(=O)[C@H](Cc1ccccc1)NC(=O)[C@@H](NC(=O)CNC(=O)[C@H](CCC(N)=O)NC(=O)C(C)(C)NC(=O)[C@@H](N)Cc1c[nH]cn1)[C@@H](C)O)[C@@H](C)O)C(=O)N[C@@H](CC(=O)O)C(=O)N[C@@H](C)C(=O)N[C@@H](CCCNC(=N)N)C(=O)N[C@@H](C)C(=O)N[C@@H](C)C(=O)N[C@@H](CCCCNC(=O)COCCOCCNC(=O)COCCOCCNC(=O)CC[C@H](NC(=O)CCCCCCCCCCCCCCC(=O)O)C(=O)O)C(=O)N[C@@H](CC(=O)O)C(=O)N[C@@H](Cc1ccccc1)C(=O)N[C@H](C(=O)N[C@@H](CCC(N)=O)C(=O)N[C@@H](Cc1c[nH]c2ccccc12)C(=O)N[C@@](C)(CC(C)C)C(=O)N[C@@H](CCS(C)(=O)=O)C(=O)N[C@@H](CC(=O)O)C(=O)N[C@H](C(N)=O)[C@@H](C)O)C(C)C [compound 40] (H-H[Aib]QGTFTSDYSKYLDARAAK([AEEA-AEEA-γGlu-C16 diacid])DFVQW[αMeL][Met(O2)]DT-NH2)
0.05 | 3.13 | 0.02 | CC(C)C[C@H](NC(=O)[C@H](Cc1ccc(O)cc1)NC(=O)[C@H](CCCCN)NC(=O)[C@H](CO)NC(=O)[C@H](Cc1ccc(O)cc1)NC(=O)[C@H](CC(=O)O)NC(=O)[C@H](CO)NC(=O)[C@@H](NC(=O)[C@H](Cc1ccccc1)NC(=O)[C@@H](NC(=O)CNC(=O)[C@H](CCC(N)=O)NC(=O)C(C)(C)NC(=O)[C@@H](N)Cc1c[nH]cn1)[C@@H](C)O)[C@@H](C)O)C(=O)N[C@@H](CC(=O)O)C(=O)N[C@@H](C)C(=O)N[C@@H](CCCNC(=N)N)C(=O)N[C@@H](C)C(=O)N[C@@H](C)C(=O)N[C@@H](CCCCNC(=O)COCCOCCNC(=O)COCCOCCNC(=O)CC[C@H](NC(=O)CCCCCCCCCCCCCCC(=O)O)C(=O)O)C(=O)N[C@@H](CC(=O)O)C(=O)N[C@@H](Cc1ccccc1)C(=O)N[C@H](C(=O)N[C@@H](CCC(N)=O)C(=O)N[C@@H](Cc1c[nH]c2ccccc12)C(=O)N[C@@H](CC(C)C)C(=O)N[C@@H](CCS(C)(=O)=O)C(=O)N[C@@](C)(CC(=O)O)C(=O)N[C@H](C(N)=O)[C@@H](C)O)C(C)C [compound 41] (H-H[Aib]QGTFTSDYSKYLDARAAK([AEEA-AEEA-γGlu-C16 diacid])DFVQWL[Met(O2)][αMeD]T-NH2)
0.13 | 3.21 | 0.04 | CC(C)C[C@H](NC(=O)[C@H](Cc1ccc(O)cc1)NC(=O)[C@H](CCCCN)NC(=O)[C@H](CO)NC(=O)[C@H](Cc1ccc(O)cc1)NC(=O)[C@H](CC(=O)O)NC(=O)[C@H](CO)NC(=O)[C@@H](NC(=O)[C@H](Cc1ccccc1)NC(=O)[C@@H](NC(=O)CNC(=O)[C@H](CCC(N)=O)NC(=O)C(C)(C)NC(=O)[C@@H](N)Cc1c[nH]cn1)[C@@H](C)O)[C@@H](C)O)C(=O)N[C@@H](CC(=O)O)C(=O)N[C@@H](C)C(=O)N[C@@H](CCCNC(=N)N)C(=O)N[C@@H](C)C(=O)N[C@@H](C)C(=O)N[C@@H](CCCCNC(=O)COCCOCCNC(=O)COCCOCCNC(=O)CC[C@H](NC(=O)CCCCCCCCCCCCCCC(=O)O)C(=O)O)C(=O)N[C@@](C)(CC(=O)O)C(=O)N[C@@H](Cc1ccccc1)C(=O)N[C@H](C(=O)N[C@@H](CCC(N)=O)C(=O)N[C@@H](Cc1c[nH]c2ccccc12)C(=O)N[C@@H](CC(C)C)C(=O)N[C@@H](CCS(C)(=O)=O)C(=O)N[C@@H](CC(=O)O)C(=O)N[C@H](C(N)=O)[C@@H](C)O)C(C)C [compound 42] (H-H[Aib]QGTFTSDYSKYLDARAAK([AEEA-AEEA-γGlu-C16 diacid])[αMeD]FVQWL[Met(O2)]DT-NH2)
0.92 | 1.3 | 0.69 | CC(C)C[C@H](NC(=O)[C@H](Cc1ccc(O)cc1)NC(=O)[C@H](CCCCN)NC(=O)[C@H](CO)NC(=O)[C@H](Cc1ccc(O)cc1)NC(=O)[C@H](CC(=O)O)NC(=O)[C@H](CO)NC(=O)[C@@H](NC(=O)[C@H](Cc1ccccc1)NC(=O)[C@@H](NC(=O)CNC(=O)[C@H](CCC(N)=O)NC(=O)C(C)(C)NC(=O)[C@@H](N)Cc1c[nH]cn1)[C@@H](C)O)[C@@H](C)O)C(=O)N[C@@H](CC(=O)O)C(=O)N[C@@H](C)C(=O)N[C@@H](CCCNC(=N)N)C(=O)N[C@@H](C)C(=O)N[C@@H](C)C(=O)N[C@@H](CCCCNC(=O)COCCOCCNC(=O)COCCOCCNC(=O)CC[C@H](NC(=O)CCCCCCCCCCCCCCCCCCC(=O)O)C(=O)O)C(=O)N[C@@H](CC(=O)O)C(=O)N[C@@H](Cc1ccccc1)C(=O)N[C@H](C(=O)N[C@@H](CCC(N)=O)C(=O)N[C@@H](Cc1c[nH]c2ccccc12)C(=O)N[C@@H](CC(C)C)C(=O)N[C@@H](CCS(C)(=O)=O)C(=O)N[C@@H](CC(=O)O)C(=O)N[C@H](C(N)=O)[C@@H](C)O)C(C)C [compound 43] (H-H[Aib]QGTFTSDYSKYLDARAAK([AEEA-AEEA-γGlu-C20 diacid])DFVQWL[Met(O2)]DT-NH2; N-terminus assumed)
0.22 | 0.92 | 0.24 | CC(C)C[C@H](NC(=O)[C@H](Cc1ccc(O)cc1)NC(=O)[C@H](CCCCN)NC(=O)[C@H](CO)NC(=O)[C@H](Cc1ccc(O)cc1)NC(=O)[C@H](CC(=O)O)NC(=O)[C@H](CO)NC(=O)[C@@H](NC(=O)[C@H](Cc1ccccc1)NC(=O)[C@@H](NC(=O)CNC(=O)[C@H](CCC(N)=O)NC(=O)C(C)(C)NC(=O)[C@@H](N)Cc1c[nH]cn1)[C@@H](C)O)[C@@H](C)O)C(=O)N[C@@H](CC(=O)O)C(=O)N[C@@H](C)C(=O)N[C@@H](CCCNC(=N)N)C(=O)N[C@@H](C)C(=O)N[C@@H](C)C(=O)N[C@@H](CCC(N)=O)C(=O)N[C@@H](CCCCNC(=O)COCCOCCNC(=O)COCCOCCNC(=O)CC[C@H](NC(=O)CCCCCCCCCCCCCCCCCCC(=O)O)C(=O)O)C(=O)N[C@@H](Cc1ccccc1)C(=O)N[C@H](C(=O)N[C@@H](CCC(N)=O)C(=O)N[C@@H](Cc1c[nH]c2ccccc12)C(=O)N[C@@H](CC(C)C)C(=O)N[C@@H](CCS(C)(=O)=O)C(=O)N[C@@H](CC(=O)O)C(=O)N[C@H](C(N)=O)[C@@H](C)O)C(C)C [compound 44] (H-H[Aib]QGTFTSDYSKYLDARAAQK([AEEA-AEEA-γGlu-C20 diacid])FVQWL[Met(O2)]DT-NH2; N-terminus assumed)
0.16 | 1.30 | 0.12 | CC(C)C[C@H](NC(=O)[C@H](Cc1ccc(O)cc1)NC(=O)[C@H](CCCCN)NC(=O)[C@H](CO)NC(=O)[C@H](Cc1ccc(O)cc1)NC(=O)[C@H](CC(=O)O)NC(=O)[C@H](CO)NC(=O)[C@@H](NC(=O)[C@H](Cc1ccccc1)NC(=O)[C@@H](NC(=O)CNC(=O)[C@H](CCC(N)=O)NC(=O)C(C)(C)NC(=O)[C@@H](N)Cc1c[nH]cn1)[C@@H](C)O)[C@@H](C)O)C(=O)N[C@@H](CC(=O)O)C(=O)N[C@@H](C)C(=O)N[C@@H](CCCNC(=N)N)C(=O)N[C@@H](C)C(=O)N[C@@H](C)C(=O)N[C@@H](CCCCNC(=O)COCCOCCNC(=O)COCCOCCNC(=O)CC[C@H](NC(=O)CCCCCCCCCCCCCCCCCC(=O)O)C(=O)O)C(=O)N[C@@H](CC(=O)O)C(=O)N[C@@H](Cc1ccccc1)C(=O)N[C@H](C(=O)N[C@@H](CCC(N)=O)C(=O)N[C@@H](Cc1c[nH]c2ccccc12)C(=O)N[C@@H](CC(C)C)C(=O)N[C@@H](CCS(C)(=O)=O)C(=O)N[C@@H](CC(=O)O)C(=O)N[C@H](C(N)=O)[C@@H](C)O)C(C)C [compound 45] (H-H[Aib]QGTFTSDYSKYLDARAAK([AEEA-AEEA-γGlu-C19 diacid])DFVQWL[Met(O2)]DT-NH2)
